# Test results reported in patent US7125542B2, “Methods and compositions for treating conditions of the eye” (Massachusetts Eye and Ear Infirmary, priority 2000, dated 2006).
# Where two headings read alike, the source gives them in different places.
# Experiments:
# [1] = test system: Bovine retinal capillary endothelial (BRCE) cells; experiment: Cell survival, 1-week cell proliferation assay in BRCE cells; format: cell-based; details: for Cellular Survival (%): BRCE
# Experimental: (§1) Bovine retinal capillary endothelial (BRCE) cells (from Patricia A. D'Amore, Schepens Eye Research Institute, Boston, Mass.) and Human retinal pigment epithelial (RPE) cells (from Anthony P. Adamis, Massachusetts Eye & Ear Infirmary, Boston, Mass.) were grown at 37° C., 5% CO2 in Dulbecco's modified Eagle's medium (DMEM; Sigma, St. Louis, Mo.), 5% heat-inactivated fetal bovine serum (FBS, Gibco, Grand Island, N.Y.), supplemented with L-glutamine, penicillin, and streptomycin (Gibco Grand Island, N.Y.). Lutetium Texaphyrin (Lu-Tex) was obtained from Alcon Laboratories, Inc. (Fort Worth, Tex.) as a stock solution of 2 mg/ml, stable in the dark at 4° C., and used in accordance with the manufacturer's guidelines.
# (§2) Cell survival was measured using a cell proliferation assay. Briefly, BRCE or RPE cells were plated at a density of 10^5 cells in DMEM with 5% FBS and incubated at 37° C. in 5% CO2. After eighteen hours, and if desired, recombinant human angiostatin (Calbiochem, La Jolla, Calif.) was added at a concentration of 500 ng/ml. Eighteen hours later, the medium was removed and replaced by 3 μg/ml Lu-Tex in complete media. Thirty minutes later, the cultures were exposed to timed irradiation using an argon/dye Photocoagulator at 732 nm and laser delivery system (model 920, Coherent Inc., Palo Alto, Calif.). Irradiance was delivered at a rate of […] to give a total dose of 5 to 20 J/cm^2, and irradiation time ranged from 7 to 28 minutes. After irradiation, the medium was removed and replaced with complete medium. Cultures were returned to the incubator for 7 days, after which cells were dispersed in trypsin, counted in a masked fashion, and the surviving fraction determined. Cultures were photographed at various times following Lu-Tex/PDT using a 16×-0.32 numeric aperture on a phase contrast inverted microscope (Diaphot, Nikon, Melville, N.Y.).
# In order to assess the effect of combining angiostatin to Lu-Tex/PDT on BRCE cell survival, cells were pre-treated for 18 hours with 500 ng/ml angiostatin after which they were treated with Lu-Tex/PDT at various fluences. Cellular survival was measured by the 1-week cellular proliferation assay.
# Bak = experiment: Western blot of Bcl-2 family members in RPE cells after Lu-Tex/PDT; format: cell-based, Human; details: up to 4 hours post-PDT, then decline
# Experimental: (§3) In order to evaluate the expression of Bcl-2 family members in BRCE and RPE cells after Lu-Tex/PDT, BRCE and RPE cells were subjected to Lu-Tex/PDT and the resultant cellular lysates subjected to Western blot analysis for detection of the anti-apoptotic Bcl-2, Bcl-xL markers, and the pro-apoptotic Bax and Bak markers.
# (§4) Cell lysates were produced as described in Example 3. Sodium dodecyl sulfate-polyacrylamide gel electrophoresis of proteins was performed with 12% SDS-polyacrylamide gels. All samples were boiled in denaturing sample buffer, and equal amounts of proteins were loaded per lane. Proteins were separated at room temperature under reducing conditions at 120 V. Western blot transfer of separated proteins was performed at room temperature, using polyvinylidene fluoride membranes at 50 mA for 1 hr. To verify equal protein loading, blots were stained with 0.1% ponceau red (Sigma) diluted in 5% acetic acid. Afterwards, blots were blocked for 1 hr in Tris buffered saline (TBS; 10 mM Tris-HCl, pH 7.5, and 150 mM NaCl) containing 5% non-fat dried milk. Next, the membranes were probed with an appropriate dilution (1:250 to 1:1000) of primary antibody in TBS containing 2.5% non-fat dried milk for one and a half hours. Mouse polyclonal antibodies against Bcl-2, Bcl-xL, Bax and Bak were purchased from Pharmingen. […]
# Bcl-xL = experiment: as above; format: cell-based, Human; details: up to 4 hours post-PDT, then plateau
# Experimental: as §3, §4
# [2] = test system: Human retinal pigment epithelial (RPE) cells; experiment: Cell survival, 1-week cell proliferation assay in RPE cells; format: cell-based; details: for Cellular Survival (%): RPE
# Experimental: as §1, §2
# [3] = test system: Human retinal pigment epithelial (RPE) cells; details: cited from earlier work
# [4] = stock solution of 2 mg/ml, in the dark at 4° C.; cited from earlier work
# [5] = test system: Caspase 3-like (DEVD-ase) protease; experiment: Caspase 3-like (DEVD-ase) activation, Ac-DEVD-AFC cleavage in RPE lysates; format: cell-based, Human; details: RPE, 10, 20 and 40 J/cm^2
# Experimental: In order to investigate the role of apoptosis in Lu-Tex/PDT mediated cell death in BRCE and RPE, the activation of Caspase 3-like (DEVD-ase) protease, a hallmark of apoptosis (Nicholson (1997) TIBS 22: 299–306), was monitored. The kinetics of activation were measured spectrofluorometrically by assaying the hydrolysis of a substrate that can be cleaved only by the caspase 3-like protease family members. […]
# In order to measure protease activity, aliquots containing 50 1 μg of cellular protein were incubated with 14 μM (final concentration N-acetyl (Asp-Glu-Val-Asp (SEQ. ID NO: 3)-(7-amino-4-trifluoromethly coumarin) (Ac-DEVD-AFC); (Pharmingen San Diego, Calif.) in 1 ml protease assay buffer pH 7.2 (20 mM piperazine-N-N^1-bis (2-ethanesulfuric acid) (PIPES), 100 mM NaCl, 10 mM dithiothreitol (DTT), 1 mM EDTA, 0.1%(w/v) 3-[(3-Cholamidopropyl) dimethyl ammonio]-1-propane sulfonate (CHAPS), and 10% sucrose) at 37° C. for 1 hour. Fluorescence was measured using a Perkin-Elmer MPF-44A spectrofluorometer (λexcitation, 400 nm; λemission 505 nm). […]
# Bax = experiment: Western blot of Bcl-2 family members in BRCE cells after Lu-Tex/PDT; format: cell-based, Bovine; details: after Lu-Tex/PDT at LD50
# Experimental: as §3
# (§5) Cell lysates were produced as described in Example 3. Sodium dodecyl sulfate-polyacrylamide gel electrophoresis of proteins was performed with 12% SDS-polyacrylamide gels. All samples were boiled in denaturing sample buffer, and equal amounts of proteins were loaded per lane. Proteins were separated at room temperature under reducing conditions at 120 V. Western blot transfer of separated proteins was performed at room temperature, using polyvinylidene fluoride membranes at 50 mA for 1 hr. To verify equal protein loading, blots were stained with 0.1% ponceau red (Sigma) diluted in 5% acetic acid. Afterwards, blots were blocked for 1 hr in Tris buffered saline (TBS; 10 mM Tris-HCl, pH 7.5, and 150 mM NaCl) containing 5% non-fat dried milk. Next, the membranes were probed with an appropriate dilution (1:250 to 1:1000) of primary antibody in TBS containing 2.5% non-fat dried milk for one and a half hours. Mouse polyclonal antibodies against Bcl-2, Bcl-xL, Bax and Bak were purchased from Pharmingen. After incubation with primary antibody, the blots were washed for 30 minutes with frequent changes of TBS, blocked in 1% non-fat dried milk in TBS for 30 minutes, followed by incubation in a peroxidase-coupled secondary antibody for 1 hour in TBS containing 1% non-fat dried milk. The blots were washed for 1 hour with frequent changes of TBST (TBS, 0.1% Tween). Immunoblot analysis was performed using enhanced chemiluminescence plus Western blotting detection reagents (Amersham, Pharmacia Biotec Piscataway, N.J.) followed by exposure to x-ray film (ML Eastman Kodak, Rochester, N.Y.).
# Bcl-2 = experiment: as above; format: cell-based, Bovine; details: after Lu-Tex/PDT at LD50
# Experimental: as §3, §5
# [6] = test system: Caspase 3-like (DEVD-ase) protease; experiment: Caspase 3-like (DEVD-ase) activation, Ac-DEVD-AFC cleavage in BRCE lysates; format: cell-based, Bovine
# Experimental: In order to investigate the role of apoptosis in Lu-Tex/PDT mediated cell death in BRCE and RPE, the activation of Caspase 3-like (DEVD-ase) protease, a hallmark of apoptosis (Nicholson (1997) TIBS 22: 299–306), was monitored. The kinetics of activation were measured spectrofluorometrically by assaying the hydrolysis of a substrate that can be cleaved only by the caspase 3-like protease family members.
# Various times after Lu-Tex/PDT, 10^6 cells were collected by centrifugation, and the washed cell pellet resuspended in 500 μl of ice-cold lysis buffer (pH 7.5) containing 10 mM Tris, 130 mM NaCl, 1% Triton X-100, 10 mM NaF, 10 mM NaPi, 10 mM NaPPi, 16 μg/ml benzamidine, 10 μg/ml phenanthroline, 10 μg/ml aprotinin, 10 μg/ml leupeptin, 10 μg/ml pepstatin and 4 mM 4(2-aminoethyl)-benzene-sulfanyl fluoride hydrochloride (AEBSF). Cellular lysates were stored in aliquots at −84° C. for later protease activity assay or Western blot analysis. A protein assay (Coomassie Plus protein assay (Pierce, Rockford, Ill.) with a bovine serum albumin (BSA) standard was used to assay protein concentration in cell extract.
# In order to measure protease activity, aliquots containing 50 1 μg of cellular protein were incubated with 14 μM (final concentration N-acetyl (Asp-Glu-Val-Asp (SEQ. ID NO: 3)-(7-amino-4-trifluoromethly coumarin) (Ac-DEVD-AFC); (Pharmingen San Diego, Calif.) in 1 ml protease assay buffer pH 7.2 (20 mM piperazine-N-N^1-bis (2-ethanesulfuric acid) (PIPES), 100 mM NaCl, 10 mM dithiothreitol (DTT), 1 mM EDTA, 0.1%(w/v) 3-[(3-Cholamidopropyl) dimethyl ammonio]-1-propane sulfonate (CHAPS), and 10% sucrose) at 37° C. for 1 hour. Fluorescence was measured using a Perkin-Elmer MPF-44A spectrofluorometer (λexcitation, 400 nm; λemission 505 nm). Cellular protein served as the blank.
# In order to examine the effect of combining angiostatin and Lu-Tex/PDT on DEVD-ase activation in BRCE cells, cells were treated with angiostatin alone, Lu-Tex/PDT alone and angiostatin/Lu-Tex/PDT, following which caspase 3-like activity was assayed as described above. Fluences of 20 and 40 J/cm^2 were used, corresponding to LD100 of combination angiostatin/Lu-Tex/PDT and Lu-Tex/PDT alone respectively. […] As in the case of BRCE cells treated with Lu-Tex/PDT alone, the rate of entry into apoptosis of BRCE cells treated with combination of angiostatin/Lu-Tex/PDT was time-dependent.
# RPE cells = experiment: Cellular morphology following PDT, RPE cells; format: cell-based, Human; details: after treatment
# Experimental: (§6) Experiments were performed to establish how PDT effects the cellular morphology of BRCE and RPE cells. The cells were treated and exposed to PDT either alone or in combination with angiostatin as described in Example 1. Although cells appeared severely damaged immediately after PDT, subsequent recovery occurred in certain circumstances. One week after PDT, some cells disappeared while those that remained regained their spindle shape and their ability to attach.
# [7] = typical; cited from earlier work
# BRCE cells = experiment: Cellular morphology following PDT, BRCE cells; format: cell-based, Bovine; details: one week after treatment
# Experimental: as §6
# [8] = fluence 5 J/cm^2, 3 μg/ml Lu-Tex, angiostatin 500 ng/ml where used, 7 days, mean ± SD
# [9] = fluence 10 J/cm^2, 3 μg/ml Lu-Tex, angiostatin 500 ng/ml where used, 7 days, mean ± SD
# [10] = fluence 20 J/cm^2, 3 μg/ml Lu-Tex, angiostatin 500 ng/ml where used, 7 days, mean ± SD
# [11] = angiostatin alone 500 ng/ml, no PDT
compound,measurement,setting,value
"CC(=O)[O-].CC(=O)[O-].CCc1c(CC)c2cc3nc(cnc4cc(OCCOCCOCCOC)c(OCCOCCOCCOC)cc4ncc4nc(cc1[n-]2)C(CCCO)=C4C)C(C)=C3CCCO.O.[Lu+3] [Lu-Tex/PDT, Lutetium Texaphyrin]",Cellular Survival (%),[1]; [8],79.13 ± 4.05 (5J/cm^2) %
same,Cellular Survival (%),[1]; [9],53.17 ± 0.32 (10J/cm^2) %
same,Cellular Survival (%),[1]; [10],33.34 ± 2.26 (20J/cm^2) %
same,dark toxicity,"[1]; at the concentration of Lu-Tex used (3 μg/ml), no light",no dark toxicity was observed
same,lethality of BRCE cells,[1]; fluence 40 J/cm^2,100%
same,lethal dose (LD100) for BRCE cells,[1]; fluence of light,40 J/cm^2
same,Bak protein level,Bak,upregulation
same,Bcl-xL protein level,Bcl-xL,upregulation
same,Cellular Survival (%),[2]; [8],94.55 ± 1.60 (5J/cm^2) %
same,Cellular Survival (%),[2]; [9],59.59 ± 3.56 (10J/cm^2) %
same,Cellular Survival (%),[2]; [10],53.47 ± 3.18 (20J/cm^2) %
same,improvement of RPE cell survival post-PDT,[2]; light dose 20 J/cm^2 (instead of 40 J/cm^2),20%
same,RPE cell survival,"[3]; fluence 20 J/cm^2, previous studies",about 43%
same,RPE cell survival,"[3]; fluence 40 J/cm^2, previous studies",~21%
same,stability of stock solution,[4],stable
same,earliest elevation of caspase 3-like activity post-Lu-Tex/PDT,[5],10 min
same,time of peak caspase 3-like activity post-Lu-Tex/PDT,[5],40 min
same,Bax protein level,Bax,upregulation
same,cellular ratio of Bax to Bcl-2 protein,Bax,increase
same,Bcl-2 protein level,Bcl-2,downregulation
same,increase of caspase 3-like activation in BRCE cells as compared to RPE cells,[6]; 10 J/cm^2 and 20 J/cm^2,about 50%
same,caspase 3-like activation levels in BRCE relative to RPE cells,[6]; 40 J/cm^2,5 fold
same,"caspase 3-like (DEVD-ase) activity, Lu-Tex/PDT (40 J/cm^2) compared with angiostatin/Lu-Tex/PDT (20 J/cm^2)",[6]; BRCE,increased levels
same,earliest elevation of caspase 3-like activity post-Lu-Tex/PDT,"[6]; BRCE, 10, 20 and 40 J/cm^2",10 min
same,time of peak caspase 3-like activity post-Lu-Tex/PDT,"[6]; BRCE, 10, 20 and 40 J/cm^2",40 min
same,cellular morphology / fate of RPE cells,RPE cells,appeared unchanged
same,persistence in the target neovasculature,[7],about twenty
same,time until present within the target neovasculature post administration,[7],one
C=Cc1c(C)c2cc3nc(c(CC(=O)N[C@@H](CC(=O)O)C(=O)O)c4[nH]c(cc5nc(cc1[nH]2)C(C)=C5CC)c(C)c4C(=O)O)[C@@H](CCC(=O)O)[C@@H]3C [N-aspartyl chlorin e6],persistence in the target neovasculature,[7],about twenty
same,time until present within the target neovasculature post administration,[7],one
O=C([O-])c1c(Cl)c(Cl)c(Cl)c(Cl)c1-c1c2cc(I)c(=O)c(I)c-2oc2c(I)c([O-])c(I)cc12.[Na+].[Na+] [rose bengal],persistence in the target neovasculature,[7],about ten
same,time until present within the target neovasculature post administration,[7],one
Angiostatin,cellular morphology / fate of BRCE cells,BRCE cells,continued to proliferate and reached confluence
same,Cellular Survival (%),[1]; [11],87.39%
same,killing of BRCE cells,"[1]; angiostatin alone, 500 ng/ml",12.61%
same,Cellular Survival (%),[2]; [11],99.09%
same,cytotoxicity on human RPE cells,[2]; human angiostatin alone,no cytotoxicity was observed
same,cellular morphology / fate of RPE cells,RPE cells,continued to proliferate and reached confluence
benzoporphyrin derivative,persistence in the target neovasculature,[7],about fifty
same,time until present within the target neovasculature post administration,[7],one
